Where “and” joins values, the source holds several entries; their conditions need not be identical. Equal entries are not always repeated.
Key:
[1] = tested on: A549 human lung carcinoma cell line; test: [H-3]-D-Tyrosine uptake competition in A549 cells; assay type: cell-based; conditions: 30 min, 100 μM competitor, 2.8% without competitor
Description: Cells were seeded 1-2 days prior to the assay and grown until sub-confluency in 48 well plates. Prior to the assay the cell culture medium was removed and the cells were washed with phosphate buffered saline (PBS)+0.1% Bovine serum albumin (BSA). After adding the assay buffer (PBS+0.1% BSA), 37 KBq of the radiotracer [H-3]-D-Tyrosine was added immediately and was incubated with cells at 37° C. in a humidified atmosphere containing 5% CO2 for 30 min. For investigation of transporter characteristics and competitions, the cells were coincubated with 100 μM F-DOPA or compound 29 (FCBT) for 30 min to monitor radioactivity uptake. To stop tracer uptake the incubation buffer was removed after 30 min, the cells were washed and lysed with 1 M sodium hydroxide. Subsequently the amount of radioactivity in the cell lysate was determined in a scintillation counter.
(§1) Aliquots of the applied tracer amount were measured in a gamma counter to determine the total amount in counts per minute (cpm) together with the samples to correct for tracer decay. Cell numbers per well were determined after detaching cells by trypsinization in 3 wells prior to start of the assay and counted in cell chamber under a microscope. The mean of cells was calculated. To compare tracer uptake between different studies the cell number was normalized to 100,000 cells.

LAT1 = target: T1, LAT1 (Homo sapiens, UniProt Q01650); test: [H-3]-D-Tyrosine efflux experiment in A549 cells (LAT1 substrate test); assay type: cell-based; conditions: A549 cells preloaded with [H-3]-D-Tyrosine, 100 μM cold compound, 0.7% without compound
T1 construct: endogenous in cells; host or cells: A549 human lung carcinoma cells
Description: To study if the compounds are transported by LAT1, the cells were incubated with 37 kBq of the radiotracer [H-3]-D-Tyrosine and was incubated with cells at 37° C. in a humidified atmosphere containing 5% CO2 for 30 min. Then the cells were washed with PBS and fresh assay buffer was added to the cells containing 100 μM concentration of cold compound and the cells were incubated for another 30 min. To stop tracer efflux the incubation buffer was removed after 30 min, the cells were washed and lysed with 1 M sodium hydroxide. Subsequently the amount of radioactivity in the cell lysate was determined in a scintillation counter.
as §1

rat hepatocytes = test: In vitro metabolic stability in rat hepatocytes with calculation of hepatic in vivo blood clearance; assay type: in vitro ADME; conditions: male Wistar rat hepatocytes, 0.5x10^6 cells/ml, 1 μM test compound
Description: Hepatocytes from Han Wistar rats were isolated via a 2-step perfusion method. After perfusion, the liver was carefully removed from the rat: the liver capsule was opened and the hepatocytes were gently shaked out into a Petri dish with ice-cold WME. The resulting cell suspension was filtered through sterile gaze in 50 mL falcon tubes and centrifuged at 50×g for 3 min at room temperature. The cell pellet was resuspended in 30 mL WME and centrifuged through a Percoll® gradient for 2 times at 100×g. The hepatocytes were washed again with Williams' medium E (WME) and resuspended in medium containing 5% FCS. Cell viability was determined by trypan blue exclusion.
For the metabolic stability assay liver cells were distributed in WME containing 5% FCS to glas vials at a density of 0.5×10^6 vital cells/ml. The test compound was added to a final concentration of 1 μM. During incubation, the hepatocyte suspensions were continuously shaken and aliquots were taken at 2, 8, 16, 30, 45 and 60 min, to which equal volumes of cold methanol were immediately added. Samples were freezed at −20° C. overnight, subsequently centrifuged for 15 minutes at 3000 rpm and the supernatant was analyzed with an Agilent 1200 HPLC-system with LCMS/MS detection.
The half-life of a test compound was determined from the concentration-time plot. From the half-life the intrinsic clearances were calculated.

[2] = In vitro plasma stability, rat plasma; assay type: in vitro ADME; conditions: 0.3 μM
Description: (§2) This investigation determines the stability of test compound in plasma of different species. […] Samples were freezed at −20° C. overnight, subsequently centrifuged for 15 minutes at 3000 rpm and the supernatant was analyzed with an Agilent 1200 HPLC-system with LCMS/MS detection.
(§3) The stability of the test compound was quantified by comparison of the remaining amount at the different time points with the amount of the 0 min sample and is expressed in % of initial concentration.

[3] = In vitro plasma stability, human plasma; assay type: in vitro ADME; conditions: for MEAN [%] / % v. 0 h: human female plasma, 0.3 μM; for % v. 0 h: single values
Description: as §2, §3

A549 cells = test: Cell uptake of [18F] compound 32b into A549 cells; assay type: cell-based, human
Description: We studied the uptake of the radiolabeled [^18F] compound 32b into A549 cells, 90000 A549 cells were seeded per cavity of a 48 well incubation plate (Becton Dickinson; Cat. 353078) and incubated for 2 days in RPMI 1640 with GlutaMAX (Invitrogen; Cat. 31331) medium supplemented with 10% FCS in an incubator (37° C., 5% CO2). Cells were washed once with PBS and then incubated for 10-30 minutes at 37° C. in PBS with 0.25 MBq of compound 32b ([^18F] labeled). After incubation, the cells were washed once with cold PBS, lysed with 1M NaOH, and finally lysates were measured in a gamma counter.

T1 sequence (Q01650 whole entry): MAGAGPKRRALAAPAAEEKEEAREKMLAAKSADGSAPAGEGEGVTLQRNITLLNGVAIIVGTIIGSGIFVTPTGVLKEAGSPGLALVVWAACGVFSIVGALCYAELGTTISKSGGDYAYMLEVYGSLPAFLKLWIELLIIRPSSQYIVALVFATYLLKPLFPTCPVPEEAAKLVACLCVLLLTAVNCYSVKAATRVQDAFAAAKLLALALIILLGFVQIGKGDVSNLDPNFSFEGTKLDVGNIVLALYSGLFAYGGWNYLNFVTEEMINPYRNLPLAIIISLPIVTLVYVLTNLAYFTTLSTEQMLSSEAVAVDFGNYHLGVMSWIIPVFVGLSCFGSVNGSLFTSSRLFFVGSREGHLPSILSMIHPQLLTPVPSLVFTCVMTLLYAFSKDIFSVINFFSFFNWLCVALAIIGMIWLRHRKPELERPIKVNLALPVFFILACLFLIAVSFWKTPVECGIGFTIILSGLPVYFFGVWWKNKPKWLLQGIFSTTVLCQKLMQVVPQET
T1 sequence (P08195 102-630 partner): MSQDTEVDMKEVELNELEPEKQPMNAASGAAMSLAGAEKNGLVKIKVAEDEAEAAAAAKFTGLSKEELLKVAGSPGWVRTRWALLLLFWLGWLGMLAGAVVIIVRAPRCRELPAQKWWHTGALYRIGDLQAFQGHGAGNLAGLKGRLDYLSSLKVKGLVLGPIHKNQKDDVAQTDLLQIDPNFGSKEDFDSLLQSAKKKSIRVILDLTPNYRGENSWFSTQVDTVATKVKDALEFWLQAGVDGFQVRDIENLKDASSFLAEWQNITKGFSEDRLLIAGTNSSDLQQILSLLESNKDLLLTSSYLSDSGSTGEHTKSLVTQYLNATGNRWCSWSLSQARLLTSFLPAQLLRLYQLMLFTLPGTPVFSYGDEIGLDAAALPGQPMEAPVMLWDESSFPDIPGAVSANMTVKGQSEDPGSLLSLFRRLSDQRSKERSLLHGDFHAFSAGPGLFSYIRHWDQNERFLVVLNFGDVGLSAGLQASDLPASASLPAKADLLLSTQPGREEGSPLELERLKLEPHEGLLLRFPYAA

## N[C@@H](Cc1ccc(O[C@H]2C[C@@H](F)C2)cc1)C(=O)O.O=C(O)C(F)(F)F [Compound 29, O-(cis-3-Fluorocyclobutyl)-L-tyrosine trifluoroacetate salt]
[1]
  uptake of the applied [H-3]-D-Tyrosine with compound present in the assay buffer: 1.1%
LAT1
  amount of D-Tyrosine which remained in the cell after 30 min (efflux): 0.08 % applied dose/100.000 cells
Rat hepatocytes
  CL blood, ws, hep: 7.17 mL/min/kg
[2]; male, rat, 2 min
  MEAN [%]: 100%
[2]; male, rat, 30 min
  % v. 0 h: 124%
  MEAN [%]: 124%
[2]; male, rat, 60 min
  MEAN [%]: 133%
[3]; 2 min incubation
  MEAN [%]: 100%
[3]; 2 min incubation, trifluoroacetate salt
  % v. 0 h: 96% and 104%
[3]; 30 min incubation
  MEAN [%]: 111%
[3]; 30 min incubation, trifluoroacetate salt
  % v. 0 h: 121% and 100%
[3]; 60 min incubation
  MEAN [%]: 104%
[3]; 60 min incubation, trifluoroacetate salt
  % v. 0 h: 104% and 105%
[3]
  degradation in human plasma after 60 min: did not show any degradation

## N[C@@H](Cc1cc(O)c(O)cc1[18F])C(=O)O [F-DOPA, reference compound]
[1]
  uptake of the applied [H-3]-D-Tyrosine with compound present in the assay buffer: 1.8%
LAT1
  amount of D-Tyrosine which remained in the cell after 30 min (efflux): 0.11 % applied dose/100.000 cells

## N[C@@H](Cc1ccc(O[C@H]2C[C@@H]([18F])C2)cc1)C(=O)O [Compound 32b, O-(cis-3-[^18F]Fluorocyclobutyl)-L-tyrosine]
A549 cells; A549 cells, after 30 min, 0.25 MBq in PBS, 37° C.
  maximum uptake: 5.87 % applied dose/10^6 cells
A549 cells; all tested tumor cells
  accumulation in tumor cells: good accumulation

## N[C@@H](Cc1ccc(OCCF)cc1)C(=O)O [O-(2-[^19F]Fluoroethyl)-L-tyrosine, reference compound]
[2]; rat male plasma, 1 min incubation
  MEAN [%]: 100%
[2]; rat male plasma, 1 min incubation, single values, listed as FET
  % v. 0 h: 92% and 108%
[2]; rat male plasma, 30 min incubation
  MEAN [%]: 109%
[2]; rat male plasma, 30 min incubation, single values, listed as FET
  % v. 0 h: 110% and 109%
[2]; rat male plasma, 60 min incubation
  MEAN [%]: 119%
[2]; rat male plasma, 60 min incubation, single values, listed as FET
  % v. 0 h: 120% and 118%
[3]; 1 min incubation
  MEAN [%]: 100%
[3]; 1 min incubation, listed as FET
  % v. 0 h: 101% and 99%
[3]; 30 min incubation
  MEAN [%]: 103%
[3]; 30 min incubation, listed as FET
  % v. 0 h: 101% and 105%
[3]; 60 min incubation
  MEAN [%]: 50%
[3]; 60 min incubation, listed as FET
  % v. 0 h: 52% and 49%
[3]
  degradation in human plasma after 60 min: 50%

Source: patent publication US20120189546A1, “Radiolabelling Method Using Cycloalkyl Groups” (BAYER PHARMA AKTIENGESELLSCHAFT, priority 2009, published 2012)
